# Assay results taken from patent publication EP0151577B1 (priority 1983, dated 1984).
# Tested on: Tension sanguine
# Assay: Cardiovascular activity: blood pressure
# Assay type: in vivo
# From the text: Le protocole experimental était celui décrit dans "Sugar Derivatives of Indolamines. part V: Cardiovascular Effects and "Anti-stress" Activity of Desoxyfructose Derivative of Serotonin and 5-Metho-xy- tryptamin", L. Mester, M. Mester, K.P. Bhargava, C. Labrid, G. Dureng and M. Cheucle, THROMBOSIS […], 15,245,1979.
# [1] = 10 mg par voie cérébroventriculaire
smiles,measurement,setting,value
"O=C(O)C(Cc1c[nH]c2ccc(O)cc12)NCC1(O)OCC(O)C(O)C1O (stereo not drawn) [DF-5HTP, N-1-desoxyfructo-5-hydroxytryptophane]",Tension sanguine Durée,[1],50 min
same,Tension sanguine Mesure à,[1],1 min
same,Tension sanguine Pic,[1],5 min
same,Tension sanguine Durée,100 mg par voie intraveineuse,30 min
same,Tension sanguine Mesure à (min),100 mg par voie intraveineuse,immé-diat
same,Tension sanguine Pic,100 mg par voie intraveineuse,1 min
